# Source: patent publication US20200000772A1, “CENICRIVIROC COMBINATION THERAPY FOR THE TREATMENT OF FIBROSIS” (Tobira Therapeutics, Inc., priority 2014, published 2020)
# Key:
# [1] = system: HIV-1 infected adult subjects; test: Study 202 biomarkers of inflammation; type: in vivo, human
# Description: As an exploratory analysis, levels of inflammation biomarkers MCP-1, sCD14, high sensitivity C-reactive protein [hs-CRP], interleukin-6 [IL-6], D-dimer, and fibrinogen) were measured. Baseline values and changes from baseline at Week 24 and Week 48 of MCP-1, sCD14, hs-CRP, IL-6, D-dimer, and fibrinogen are summarized in Table 22.
# The sCD14 samples were originally analyzed in 2 separate batches: Batch 1 included samples leading up to the Week 24 primary analysis and Batch 2 included Week 32 and Week 48 (end of study) samples. A repeat analysis of archived samples all analyzed in one batch was conducted for consistency in analysis across time points. To control for the effects of covariates, a linear mixed-model repeated-measures analysis was conducted on the changes from baseline in sCD14 (analysis dated September 2013).
# CCR5 = CCR5 (Homo sapiens, UniProt P51681); test: CCR5 antagonism in in vitro, ex vivo and clinical studies; settings: ex vivo, Studies 652-2-201 and 652-2-202
# [2] = Mouse toxicity studies without surgical procedures; type: in vivo; settings: CVC doses up to 2000 mg/kg/day
# [3] = system: STAM™ mouse model of Non-alcoholic Steatohepatitis; test: STAM mouse model of NASH, Part 2: anti-HCC effects at week 18; settings: for Body weight / Liver-to-body weight ratio: mean ± SD; for mice that died (survival analysis): 6 to 18 weeks
# Description: Group 1-Vehicle: Eighteen NASH mice were orally administered vehicle at a volume of 10 mL/kg twice daily (9:00 and 19:00) from 6 weeks of age.
# [4] = Chronic (3- and 9-month) monkey toxicity studies; type: in vivo
# [5] = system: renal fibrosis induced by unilateral ureter occlusion (UUO); test: Mouse UUO model of renal fibrosis; type: in vivo, CD-1 mice
# Description: Test animals were allocated to weight-matched treatment groups on the day prior to the surgical procedure (Day −1). Male CD-1 mice (N=51; age, 7-8 weeks) underwent either sham surgery or total ligation of the right ureter, i.e. UUO, via aseptic laparotomy (FIG. 5). […] Another group received the anti-transforming growth factor TGF-β1 antibody, compound 1D11 (positive control) at 3 mg/kg/day from Days −1 to 4, injected intraperitoneally once daily, and vehicle control from Days 0 to 5. […] On Day 5, animals were anaesthetised, blood and tissues were collected prior to sacrifice.
# Study endpoints included: a) body and kidney weights; b) fibrosis in obstructed kidney evaluated via histological quantitative image analysis of picrosirius red staining (ten images/depth/kidney obtained and assessed in a blinded fashion using light microscopy [at 200×] to enable sampling of 60-70% of the renal cortical area) and quantified by a composite Collagen Volume Fraction (CVF [% total area imaged]) score expressed as the average positive stain across three anatomically distinct ([…] apart) tissue sections, or depths, from the obstructed kidney; c) hydroxyproline content of frozen renal cortical tissue biopsies as assessed by biochemical analyses; d) mRNA expression of profibrotic and inflammatory biomarkers (including MCP-1, Collagen 1a1, Collagen 3a1, TGF-β1, Fibronectin-1, α-smooth muscle actin (α-SMA) and connective tissue growth factor-1 (CTGF-1); assessed via Luminex® (Life Technologies™, Carlsbad, Calif., USA) assay with relative expression normalised to HPRT (hypoxanthine phosphoribosyltransferase).
# Data are expressed as mean±standard error of mean (SEM). Statistical analyses were performed using GraphPad Prism® (GraphPad Software, Inc., San Diego, Calif., USA). Treatment differences between sham-surgery+vehiclecontrol and UUO+vehicle-control groups, and between UUO+vehicle-control and UUO+compound-1D1 (positive control) groups, were analysed by unpaired t-Test. Treatment differences between UUO+vehicle-control and CVC-dose groups were analysed by one-way ANOVA (analysis of variance) with Dunnett's test (post-hoc).
# [6] = CVC-high 100 mg/kg/day, week 18
# [7] = CVC-high 100 mg/kg/day, week 18, listed as Cenicriviroc
# [8] = CVC-low 20 mg/kg/day, week 18, listed as Cenicriviroc
# [9] = CVC 7 and 20 mg/kg/day, compound 1D11, vs UUO+vehicle-control
# CCR5, sequence (P51681 whole entry): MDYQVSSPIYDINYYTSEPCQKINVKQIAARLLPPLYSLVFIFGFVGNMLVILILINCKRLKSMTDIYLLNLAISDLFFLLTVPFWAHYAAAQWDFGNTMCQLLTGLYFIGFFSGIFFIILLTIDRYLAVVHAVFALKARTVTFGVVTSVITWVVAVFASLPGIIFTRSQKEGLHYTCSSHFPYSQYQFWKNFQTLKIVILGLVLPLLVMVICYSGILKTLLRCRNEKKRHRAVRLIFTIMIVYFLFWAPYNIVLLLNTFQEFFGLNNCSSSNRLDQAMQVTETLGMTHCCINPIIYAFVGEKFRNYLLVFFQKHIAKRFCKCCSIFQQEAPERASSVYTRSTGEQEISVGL
smiles,measurement,setting,value
"CCCCOCCOc1ccc(-c2ccc3c(c2)/C=C(/C(=O)Nc2ccc([S@@+]([O-])Cc4cncn4CCC)cc2)CCCN3CC(C)C)cc1 [CVC, (S)-8-[4-(2-Butoxyethoxy)phenyl]-1-isobutyl-N-(4-{[(1-propyl-1H-imidazol-5-yl)methyl]sulfinyl}phenyl)-1,2,3,4-tetrahydro-1-benzazocine-5-carboxamide]","D-dimer Changes from baseline at Week 24, Mean",[1]; CVC 100 mg,-32 ng/mL
same,"D-dimer Changes from baseline at Week 24, Median",[1]; CVC 100 mg,-1.0 ng/mL
same,"D-dimer Changes from baseline at Week 48, Mean",[1]; CVC 100 mg,-41 ng/mL
same,"D-dimer Changes from baseline at Week 48, Median",[1]; CVC 100 mg,-1.0 ng/mL
same,"Fibrinogen Changes from baseline at Week 24, Mean",[1]; CVC 100 mg,-3 mg/dL
same,"Fibrinogen Changes from baseline at Week 24, Median",[1]; CVC 100 mg,-14 mg/dL
same,"Fibrinogen Changes from baseline at Week 48, Mean",[1]; CVC 100 mg,11 mg/dL
same,"Fibrinogen Changes from baseline at Week 48, Median",[1]; CVC 100 mg,15 mg/dL
same,"IL-6 Changes from baseline at Week 24, Mean",[1]; CVC 100 mg,0.42 pg/mL
same,"IL-6 Changes from baseline at Week 24, Median",[1]; CVC 100 mg,0.00 pg/mL
same,"IL-6 Changes from baseline at Week 48, Mean",[1]; CVC 100 mg,0.29 pg/mL
same,"IL-6 Changes from baseline at Week 48, Median",[1]; CVC 100 mg,0.00 pg/mL
same,"MCP-1 Changes from baseline at Week 24, Mean",[1]; CVC 100 mg,493 pg/mL
same,"MCP-1 Changes from baseline at Week 24, Median",[1]; CVC 100 mg,429 pg/mL
same,"MCP-1 Changes from baseline at Week 48, Mean",[1]; CVC 100 mg,636 pg/mL
same,"MCP-1 Changes from baseline at Week 48, Median",[1]; CVC 100 mg,523 pg/mL
same,"hs-CRP Changes from baseline at Week 24, Mean",[1]; CVC 100 mg,-0.16 mg/dL
same,"hs-CRP Changes from baseline at Week 24, Median",[1]; CVC 100 mg,-0.03 mg/dL
same,"hs-CRP Changes from baseline at Week 48, Mean",[1]; CVC 100 mg,-0.08 mg/dL
same,"hs-CRP Changes from baseline at Week 48, Median",[1]; CVC 100 mg,-0.01 mg/dL
same,plasma MCP-1 over time,"[1]; CVC 100 mg and 200 mg, EFV, up to Week 48",dose-response was observed with CVC in increases over time
same,"sCD14 Changes from baseline Week 32, Mean","[1]; CVC 100 mg, original values",110000 pg/mL
same,"sCD14 Changes from baseline Week 32, Median","[1]; CVC 100 mg, original values",120000 pg/mL
same,"sCD14 Changes from baseline at Week 12, Mean","[1]; CVC 100 mg, original values",-140000 pg/mL
same,"sCD14 Changes from baseline at Week 12, Median","[1]; CVC 100 mg, original values",-160000 pg/mL
same,"sCD14 Changes from baseline at Week 24, Mean","[1]; CVC 100 mg, original values",-190000 pg/mL
same,"sCD14 Changes from baseline at Week 24, Median","[1]; CVC 100 mg, original values",-180000 pg/mL
same,"sCD14 Changes from baseline at Week 48, Mean","[1]; CVC 100 mg, original values",100000 pg/mL
same,"sCD14 Changes from baseline at Week 48, Median","[1]; CVC 100 mg, original values",100000 pg/mL
same,"D-dimer Changes from baseline at Week 24, Mean",[1]; CVC 200 mg,-64 ng/mL
same,"D-dimer Changes from baseline at Week 24, Median",[1]; CVC 200 mg,-50 ng/mL
same,"D-dimer Changes from baseline at Week 48, Mean",[1]; CVC 200 mg,-70 ng/mL
same,"D-dimer Changes from baseline at Week 48, Median",[1]; CVC 200 mg,-50 ng/mL
same,"Fibrinogen Changes from baseline at Week 24, Mean",[1]; CVC 200 mg,-7 mg/dL
same,"Fibrinogen Changes from baseline at Week 24, Median",[1]; CVC 200 mg,-8 mg/dL
same,"Fibrinogen Changes from baseline at Week 48, Mean",[1]; CVC 200 mg,-10 mg/dL
same,"Fibrinogen Changes from baseline at Week 48, Median",[1]; CVC 200 mg,-13 mg/dL
same,"IL-6 Changes from baseline at Week 24, Mean",[1]; CVC 200 mg,0.81 pg/mL
same,"IL-6 Changes from baseline at Week 24, Median",[1]; CVC 200 mg,0.00 pg/mL
same,"IL-6 Changes from baseline at Week 48, Mean",[1]; CVC 200 mg,-0.04 pg/mL
same,"IL-6 Changes from baseline at Week 48, Median",[1]; CVC 200 mg,0.00 pg/mL
same,"MCP-1 Changes from baseline at Week 24, Mean",[1]; CVC 200 mg,753 pg/mL
same,"MCP-1 Changes from baseline at Week 24, Median",[1]; CVC 200 mg,695 pg/mL
same,"MCP-1 Changes from baseline at Week 48, Mean",[1]; CVC 200 mg,900 pg/mL
same,"MCP-1 Changes from baseline at Week 48, Median",[1]; CVC 200 mg,756 pg/mL
same,"hs-CRP Changes from baseline at Week 24, Mean",[1]; CVC 200 mg,-0.07 mg/dL
same,"hs-CRP Changes from baseline at Week 24, Median",[1]; CVC 200 mg,-0.04 mg/dL
same,"hs-CRP Changes from baseline at Week 48, Mean",[1]; CVC 200 mg,-0.18 mg/dL
same,"hs-CRP Changes from baseline at Week 48, Median",[1]; CVC 200 mg,-0.04 mg/dL
same,"sCD14 Changes from baseline Week 32, Mean","[1]; CVC 200 mg, original values",20000 pg/mL
same,"sCD14 Changes from baseline Week 32, Median","[1]; CVC 200 mg, original values",-20000 pg/mL
same,"sCD14 Changes from baseline at Week 12, Median","[1]; CVC 200 mg, original values",-210000 pg/mL
same,"sCD14 Changes from baseline at Week 24, Mean","[1]; CVC 200 mg, original values",-230000 pg/mL
same,"sCD14 Changes from baseline at Week 24, Median","[1]; CVC 200 mg, original values",-190000 pg/mL
same,"sCD14 Changes from baseline at Week 48, Mean","[1]; CVC 200 mg, original values",-40000 pg/mL
same,"sCD14 Changes from baseline at Week 48, Median","[1]; CVC 200 mg, original values",-40000 pg/mL
same,sCD14 over 48 weeks of treatment (linear mixed-model analysis of repeat sCD14 analysis),"[1]; both CVC treatment arms, EFV arm",decrease
same,antagonism of CCR5,CCR5,potent and concentration-dependent antagonism
same,tolerability,[2],well tolerated
same,effect on NASH-derived HCC,"[3]; CVC treatment groups, week 18",not observed
same,Body weight,[3]; [6],20.8 ± 2.7 g
same,Liver-to-body weight ratio,[3]; [6],8.8±2.3%
same,Body weight,[3]; [7],20.8 ± 2.7 g
same,Liver-to-body weight ratio,[3]; [7],8.8 ± 2.3%
same,mice that died (survival analysis),[3]; CVC-high group,Five out of twelve mice died
same,mice with GS-positive nodules,"[3]; CVC-high group, week 18",seven out of seven mice
same,mice with HCC lesions (HE staining),"[3]; CVC-high group, week 18",six out of seven mice
same,Body weight,"[3]; CVC-low 20 mg/kg/day, week 18",22.9 ± 3.5 g
same,Liver-to-body weight ratio,"[3]; CVC-low 20 mg/kg/day, week 18",8.3±2.8%
same,Body weight,[3]; [8],22.9 ± 3.5 g
same,Liver-to-body weight ratio,[3]; [8],8.3 ± 2.8%
same,mice that died (survival analysis),[3]; CVC-low group,Six out of twelve mice died
same,mice with GS-positive nodules,"[3]; CVC-low group, week 18",five out of six mice
same,mice with HCC lesions (HE staining),"[3]; CVC-low group, week 18",five out of six mice
same,"plasma MCP-1 levels, fold over controls","[4]; 1000 mg/kg/day, chronic (3- and 9-month) monkey toxicity studies",~5 fold
same,indication of inflammation in clinical pathology parameters or any tissue incl. liver,[4]; high dose of 1000 mg/kg/day,No indication of inflammation
same,effect on body weight,"[5]; CVC 7 mg/kg/day oral, compound 1D11 3 mg/kg/day i.p., Day 5",no effect
same,decrease in body weight relative to UUO+vehicle-control,"[5]; CVC 20 mg/kg/day, Day 5",5%
same,tolerability after UUO surgery,[5]; CVC 100 mg/kg/day group (N=9),terminated early due to moribundity
same,effect on UUO-induced increases in obstructed kidney hydroxyproline content,[5]; CVC 7 and 20 mg/kg/day,Neither dose of CVC tested affected
same,effects on obstructed or contralateral kidney weight or kidney weight index,"[5]; CVC 7 and 20 mg/kg/day, compound 1D11 3 mg/kg/day, vs UUO+vehicle-control",No significant treatment effects
same,"Collagen 1a1, Collagen 3a1, TGF-β1 and Fibronectin-1 mRNA expression in obstructed kidney",[5]; [9],attenuated UUO-induced increases
same,"obstructed kidney cortical MCP-1, α-SMA and CTGF-1 mRNA expression",[5]; [9],did not have significant effects
